Assay results reported in patent EP1137632B1, “THIOUREA INHIBITORS OF HERPES VIRUSES” (Wyeth, priority 1998, dated 2000).
Converted amounts (≈) assume the structure as drawn. Where two headings read alike, the source gives them in different places.

Tests used:
[1] = system: HCMV recombinant mutant virus; test: microbe, parasite or virus in culture; format: cell-based, human cytomegalovirus; settings: Human betaherpesvirus 5, read-out: IC50 (ug/ml) HCMV
Text: Microtiter plate assay. Ninety-six well plate cultures of human foreskin fibroblasts are infected in the presence of inhibitor compound with a HCMV recombinant mutant virus whose genome contains the prokaryotic beta-glucuronidase gene (Jefferson, R. A., S. M. Burgess, and D. Hirsh. 1986. Beta-glucuronidase from Escherichia coli as a gene fusion marker. Proc. Natl. Acad. Sci. USA 83:8447-8451) whose expression is controlled by a viral promoter. An example of such a virus is RV145 (Jones, T. R., V. P. Muzithras, and Y. Gluzman. 1991. Replacement mutagenesis of the human cytomegalovirus genome: US10 and US11 gene products are nonessential. J. Virol. 65:5860-5872). Since it is under the control of a viral promoter, beta-glucuronidase expression is an indirect indicator of growth and replication of HCMV in this assay. At 96 hours post-infection, the infected cell lysates are prepared (using 50mM sodium phosphate [pH7.0] containing 0.1 % Triton X-100 and 0.1% sarkosyl) and assayed for beta-glucuronidase activity using a substrate for the enzyme which when cleaved yields either a product which can be measured colorimetrically in a spectrophotometer or fluorescently in a microfluorimeter. Examples of such substrates are p-nitrophenyl-beta-D-glucuronide and methylumbelliferylglucuronide, respectively. The presence of an antiviral compound is indicated by the reduced expression of the HCMV genome resident beta-glucuronidase gene, compared to the absence of inhibitor. […] Data from this assay generated using varying amounts of inhibitor compound is also used to estimate the IC50 of an inhibitor compound.

[2] = system: HSV-1; test: HSV antiviral (ELISA) assay in Vero cells; format: cell-based, herpes simplex virus type 1; settings: read-out: IC50 (ug/ml) HSV
Procedure: HSV antiviral (ELISA) assay
Vero cells (ATCC #CCL-81) are plated on 96-well tissue culture plates at 3.5x10^4 cells per 100µl tissue culture DMEM (Dulbecco's modified Eagle media) supplemented with 2% fetal bovine serum (FBS) in each well. After overnight incubation @ 37°C (in 5% CO2) and 30 minutes prior to infection with HSV-1 (multiplicity of infection equal to 0.006), cells are either untreated, or treated with test compound (multiple concentrations) or reference standard drug control. After approximately 24 hours post-infection incubation @ 37°C (in 5% CO2), cells are fixed for ELISA assay. The primary antibody is murine anti-HSV glycoprotein D monoclonal primary antibody and the secondary antibody is goat anti-mouse IgG linked to β-galactosidase. Thus the extent of viral replication is determined by assessing β-galactosidase activity by quantifying the generation of the 4-methyl umbelliferone fluorescent cleavage product after addition of the methyl umbelliferyl-β-D-galactoside (Sigma #M1633) substrate on a microfluorimeter (365nm for excitation and 450nm for emission). Antiviral activity (IC50) of the test compound is determined by comparing the flourescence obtained in absence of compound to that obtained in the presence of compound.

[3] = system: VZV strain Ellen; test: VZV antiviral (ELISA) assay in human foreskin fibroblast cells; format: cell-based, varicella-zoster virus; settings: read-out: IC50 (ug/ml) VZV
Procedure: VZV antiviral (ELISA) assay
For the generation of stock VZV to be used in the assay, VZV strain Ellen (ATCC #VR-1367) is used to infect human foreskin fibroblast (HFF) cells at low multiplicity (less than 0.1) and incubated overnight at 37°C in 5% CO2. After the overnight incubation, the mixture of uninfected and VZV-infected HFF infected cells are then harvested and added to each well of 96-well plates (3.5x10^4 cells in 100 µl DMEM supplemented with 2% FBS) which contain test compound or the reference standard drug control (in 100µl DMEM supplemented with 2% FBS per well). These cells are incubated for three days at 37°C in 5% CO2, then fixed for ELISA assay. The primary antibody is murine anti-VZV glycoprotein II monoclonal antibody (Applied Biosystems, Inc. #13-145-100) and the secondary antibody is goat anti-mouse IgG linked to β-galactosidase. Thus the extent of viral replication is determined by assessing β-galactosidase activity by quantifying the generation of the 4-methyl umbelliferone fluorescent cleavage product after addition of the methyl umbelliferyl-β-D-galactoside (Sigma #M1633) substrate on a microfluorimeter (365nm for excitation and 450nm for emission). Antiviral activity (IC50) of the test compound is determined by comparing the flourescence obtained in absence of compound to that obtained in the presence of compound.

[4] = Human alphaherpesvirus 1, HSV-1 in Vero cells
[5] = Human alphaherpesvirus 3, VZV strain Ellen in HFF cells

COc1cc(NC(=S)NC(C)c2ccc(C#N)cc2)c(OC)cc1NC(=O)c1ccccc1F (stereo not drawn) [Example 1024, N-(4-{3-[1-(4-Cyano-phenyl)-ethyl]-thioureido}-2,5-dimethoxy-phenyl)-2-fluoro-benzamide]
IC50 [1]: > 10 µg/mL | IC50 [2, 4]: > 10 µg/mL | IC50 [3, 5]: > 10 µg/mL

COc1cc(NC(=S)NC(C)c2ccc(F)cc2)c(OC)cc1NC(=O)c1ccccc1F (stereo not drawn) [Example 1025, 2-Fluoro-N-(4-{3-[1-(4-fluoro-phenyl)-ethyl]-thioureido}-2,5-dimethoxy-phenyl)-benzamide]
IC50 [1]: > 10 µg/mL | IC50 [2, 4]: > 10 µg/mL | IC50 [3, 5]: > 10 µg/mL

COc1cc(OC)c(NC(=S)Nc2c(Cl)cc(NC(=O)c3ccccc3F)cc2Cl)cc1Cl [Example 1026, N-{3,5-Dichloro-4-[3-(5-chloro-2,4-dimethoxy-phenyl)-thioureido]-phenyl}-2-fluoro-benzamide]
IC50 [1]: > 10 µg/mL | IC50 [2, 4]: 0.15 µg/mL (≈ 0.284 µM) | IC50 [3, 5]: > 10 µg/mL

Cc1cc(NC(=O)c2cc(F)c(F)cc2F)ccc1NC(=S)NC(C)c1ccc(F)cc1 (stereo not drawn) [Example 1029, 2,4,5-Trifluoro-N-(4-{3-[1-(4-fluoro-phenyl)-ethyl]-thioureido}-3-methyl-phenyl)-benzamide]
IC50 [1]: > 10 µg/mL | IC50 [2, 4]: > 10 µg/mL | IC50 [3, 5]: 0.53 µg/mL (≈ 1.15 µM)

COc1cc(NC(=S)NC(C)c2ccc(F)cc2)c(C)cc1NC(=O)c1ccccc1F (stereo not drawn) [Example 1031, 2-Fluoro-N-(4-{3-[1-(4-fluoro-phenyl)-ethyl]-thioureido}-2-methoxy-5-methyl-phenyl)-benzamide]
IC50 [1]: > 10 µg/mL | IC50 [2, 4]: > 10 µg/mL | IC50 [3, 5]: 0.7 µg/mL (≈ 1.54 µM)

CC(NC(=S)Nc1cc(Br)c(NC(=O)c2ccccc2F)c(Br)c1)c1ccc(F)cc1 (stereo not drawn) [Example 1033, N-(2,6-Dibromo-4-{3-[1-(4-fluoro-phenyl)-ethyl]-thioureido}-phenyl)-2-fluoro-benzamide]
IC50 [1]: 3.8 µg/mL (≈ 6.68 µM) | IC50 [2, 4]: 7 µg/mL (≈ 12.3 µM) | IC50 [3, 5]: 0.039 µg/mL (≈ 0.0685 µM)

CC(NC(=S)Nc1ccc(NC(=O)c2ccccc2F)c(C(F)(F)F)c1)c1ccc(F)cc1 (stereo not drawn) [Example 1034, 2-Fluoro-N-(4-{3-[1-(4-fluoro-phenyl)-ethyl]-thioureido}-2-trifluoromethyl-phenyl)-benzamide]
IC50 [1]: 2.6 µg/mL (≈ 5.42 µM) | IC50 [2, 4]: > 10 µg/mL | IC50 [3, 5]: 0.03 µg/mL (≈ 0.0626 µM)

CC(NC(=S)Nc1ccc(NC(=O)c2ccccc2F)c(C(F)(F)F)c1)c1ccc(Br)cc1 (stereo not drawn) [Example 1035, N-(4-{3-[1-(4-Bromo-phenyl)-ethyl)-thioureido}-2-trifluoromethyl-phenyl)-2-fluoro-benzamide]
IC50 [1]: 2.3 µg/mL (≈ 4.26 µM) | IC50 [2, 4]: 3.1 µg/mL (≈ 5.74 µM) | IC50 [3, 5]: 0.032 µg/mL (≈ 0.0592 µM)

CC(NC(=S)Nc1ccc(NC(=O)c2ccccc2F)c(C(F)(F)F)c1)c1ccc(C#N)cc1 (stereo not drawn) [Example 1036, N-(4-{3-[1-(4-Cyano-phenyl)-ethyl]-thioureido}-2-trifluoromethyl-phenyl)-2-fluoro-benzamide]
IC50 [1]: 2.1 µg/mL (≈ 4.32 µM) | IC50 [2, 4]: 4 µg/mL (≈ 8.22 µM) | IC50 [3, 5]: 0.31 µg/mL (≈ 0.637 µM)

CC(NC(=S)Nc1ccc(NC(=O)c2ccccc2F)c(C(F)(F)F)c1)c1cc2ccccc2o1 (stereo not drawn) [Example 1037, N-{4-[3-(1-Benzofuran-2-yl-ethyl)-thioureido]-2-trifluoromethyl-phenyl}-2-fluoro-benzamide]
IC50 [1]: 2 µg/mL (≈ 3.99 µM) | IC50 [2, 4]: 3.6 µg/mL (≈ 7.18 µM) | IC50 [3, 5]: 0.027 µg/mL (≈ 0.0538 µM)

CC(NC(=S)Nc1ccc(NC(=O)c2ccccc2F)c(Cl)c1)c1ccc(F)cc1 (stereo not drawn) [Example 1038, N-(2-Chloro-4-{3-[1-(4-fluoro-phenyl)-ethyl]-thioureido}-phenyl)-2-fluoro-benzamide]
IC50 [1]: 3.5 µg/mL (≈ 7.85 µM) | IC50 [2, 4]: 3 µg/mL (≈ 6.73 µM) | IC50 [3, 5]: 0.04 µg/mL (≈ 0.0897 µM)

CC(NC(=S)Nc1ccc(NC(=O)c2ccccc2F)c(Cl)c1)c1ccc(C#N)cc1 (stereo not drawn) [Example 1039, N-(2-Chloro-4-{3-[1-(4-cyano-phenyl)-ethyl]-thioureido}-phenyl)-2-fluoro-benzamide]
IC50 [1]: 1.3 µg/mL (≈ 2.87 µM) | IC50 [2, 4]: 7.2 µg/mL (≈ 15.9 µM) | IC50 [3, 5]: 0.25 µg/mL (≈ 0.552 µM)

CC(NC(=S)Nc1ccc(NC(=O)c2ccccc2F)c(C#N)c1)c1ccc(F)cc1 (stereo not drawn) [Example 1040, N-(2-Cyano-4-{3-[1-(4-fluoro-phenyl)-ethyl]-thioureido}-phenyl)-2-fluoro-benzamide]
IC50 [1]: > 10 µg/mL | IC50 [2, 4]: > 10 µg/mL | IC50 [3, 5]: 0.05 µg/mL (≈ 0.115 µM)

CC(NC(=S)Nc1ccc(NC(=O)c2ccccc2F)c(C#N)c1)c1ccc(Br)cc1 (stereo not drawn) [Example 1041, N-(4-{3-[1-(4-Bromo-phenyl)-ethyl]-thioureido}-2-cyano-phenyl)-2-fluoro-benzamide]
IC50 [1]: 10.4 µg/mL (≈ 20.9 µM) | IC50 [2, 4]: > 10 µg/mL | IC50 [3, 5]: 0.096 µg/mL (≈ 0.193 µM)

CC(NC(=S)Nc1ccc(NC(=O)c2ccccc2F)c(C#N)c1)c1ccc(C#N)cc1 (stereo not drawn) [Example 1042, N-(2-Cyano-4-{3-[1-(4-cyano-phenyl)-ethyl]-thioureido}-phenyl)-2-fluoro-benzamide]
IC50 [1]: 2.1 µg/mL (≈ 4.73 µM) | IC50 [2, 4]: 4.2 µg/mL (≈ 9.47 µM) | IC50 [3, 5]: 0.54 µg/mL (≈ 1.22 µM)

CC(NC(=S)Nc1ccc(NC(=O)c2ccccc2F)c(C#N)c1)c1cc2ccccc2o1 (stereo not drawn) [Example 1043, N-{4-[3-(1-Benzofuran-2-yl-ethyl)-thioureido]-2-cyano-phenyl)-2-fluoro-benzamide]
IC50 [1]: > 10 µg/mL | IC50 [2, 4]: > 10 µg/mL | IC50 [3, 5]: 0.099 µg/mL (≈ 0.216 µM)

CC(NC(=S)Nc1ccc(NC(=O)c2ccccc2F)c(C(=O)c2ccccc2)c1)c1ccc(F)cc1 (stereo not drawn) [Example 1044, N-(2-Benzoyl-4-{3-[1-(4-fluoro-phenyl)-ethyl]-thioureido}-phenyl)-2-fluoro-benzamide]
IC50 [1]: 1.8 µg/mL (≈ 3.49 µM) | IC50 [2, 4]: > 10 µg/mL | IC50 [3, 5]: 3.3 µg/mL (≈ 6.4 µM)

Cc1cc(NC(=S)NC(C)c2ccc(F)cc2)ccc1NC(=O)c1ccccc1F (stereo not drawn) [Example 1045, 2-Fluoro-N-(4-{3-[1-(4-fluoro-phenyl)-ethyl]-thioureido}-2-methyl-phenyl)-benzamide]
IC50 [1]: 1.5 µg/mL (≈ 3.53 µM) | IC50 [2, 4]: 6.2 µg/mL (≈ 14.6 µM) | IC50 [3, 5]: 0.05 µg/mL (≈ 0.118 µM)

Cc1cc(NC(=S)NC(C)c2ccc(Br)cc2)ccc1NC(=O)c1ccccc1F (stereo not drawn) [Example 1046, N-(4-{3-[1-(4-Bromo-phenyl)-ethyl]-thioureido}-2-methyl-phenyl)-2-fluoro-benzamide]
IC50 [1]: 2.8 µg/mL (≈ 5.76 µM) | IC50 [2, 4]: 6.3 µg/mL (≈ 13 µM) | IC50 [3, 5]: 0.057 µg/mL (≈ 0.117 µM)

Cc1cc(NC(=S)NC(C)c2ccc(C#N)cc2)ccc1NC(=O)c1ccccc1F (stereo not drawn) [Example 1047, N-(4-{3-[1-(4-Cyano-phenyl)-ethyl]-thioureido}-2-methyl-phenyl)-2-fluoro-benzamide]
IC50 [1]: 6.1 µg/mL (≈ 14.1 µM) | IC50 ([2]; Human alphaherpesvirus 1, Vero): > 10 µg/mL | IC50 ([3]; Human alphaherpesvirus 3, HFF): 0.63 µg/mL (≈ 1.46 µM)

Cc1cc(NC(=S)NC(C)c2cc3ccccc3o2)ccc1NC(=O)c1ccccc1F (stereo not drawn) [Example 1048, N-{4-[3-(1-Benzofuran-2-yl-ethyl)-thioureido]-2-methyl-phenyl}-2-fluoro-benzamide]
IC50 [1]: 3.4 µg/mL (≈ 7.6 µM) | IC50 [2, 4]: > 10 µg/mL | IC50 [3, 5]: 0.061 µg/mL (≈ 0.136 µM)

CC(NC(=S)Nc1ccc(NC(=O)c2ccccc2F)c(N(C)C)c1)c1ccc(F)cc1 (stereo not drawn) [Example 1049, N-(2-Dimethylamino-4-{3-[1-(4-fluoro-phenyl)-ethyl]-thioureido}-phenyl)-2-fluoro-benzamide]
IC50 [1]: 4.5 µg/mL (≈ 9.9 µM) | IC50 [2, 4]: 8 µg/mL (≈ 17.6 µM) | IC50 [3, 5]: 0.07 µg/mL (≈ 0.154 µM)

CC(NC(=S)Nc1ccc(NC(=O)c2ccccc2F)c(OCc2ccccc2)c1)c1ccc(C#N)cc1 (stereo not drawn) [Example 1050, N-(2-Benzyloxy-4-{3-[1-(4-cyano-phenyl)-ethyl]-thioureido}-phenyl)-2-fluoro-benzamide]
IC50 [1]: > 10 µg/mL | IC50 [2, 4]: > 10 µg/mL | IC50 [3, 5]: > 7.5 µg/mL
